In assay [1] the test system is panel of 12 human tumour cell lines. Nature of the assay: monolayer proliferation assay (modified propidium iodide assay) in a panel of 12 human tumour cell lines. The assay is classed as cell-based. How it is done: In vitro evaluation of compounds for anticancer activity in a panel of 12 human tumour cell lines in a monolayer proliferation assay was carried out at the Oncotest Testing Facility, Institute for Experimental Oncology, Oncotest GmbH, Freiburg.
The Oncotest cell lines were established from human tumor xenografts as described by Roth et al., (1999). The origin of the donor xenografts was described by Fiebig et al., (1999). Other cell lines were either obtained from the NCI (H460, SF-268, OVCAR-3, DU145, MDA-MB-231, MDA-MB-468) or purchased from DSMZ, Braunschweig, Germany (LNCAP).
All cell lines, unless otherwise specified, were grown at 37° C. in a humidified atmosphere (95% air, 5% CO2) in a ‘ready-mix’ medium containing RPMI 1640 medium, 10% fetal calf serum, and 0.1 mg/mL gentamicin (PAA, Cölbe, Germany).
A modified propidium iodide assay was used to assess the effects of the test compound(s) on the growth of human tumour cell lines (Dengler et al., (1995)).
Briefly, cells were harvested from exponential phase cultures by trypsinization, counted and plated in 96 well flat-bottomed microtitre plates at a cell density dependent on the cell line (5-10.000 viable cells/well). After 24 h recovery to allow the cells to resume exponential growth, 0.010 mL of culture medium (6 control wells per plate) or culture medium containing macbecin were added to the wells. Each concentration was plated in triplicate. Compounds were applied in two concentrations (0.001 mM and 0.01 mM). Following 4 days of continuous exposure, cell culture medium with or without test compound was replaced by 0.2 mL of an aqueous propidium iodide (PI) solution (7 mg/L). To measure the proportion of living cells, cells were permeabilized by freezing the plates. After thawing the plates, fluorescence was measured using the Cytofluor 4000 microplate reader (excitation 530 nm, emission 620 nm), giving a direct relationship to the total number of viable cells.
The mean growth inhibition across the 12 cell-line panel was expressed as treated/control×100 (% T/C).
In vitro evaluation of the test compounds for anticancer activity in a panel of human tumour cell lines in a monolayer proliferation assay was carried out as described in the general methods using a modified propidium iodide assay. This screen may be used as a model for the toxic effect of compounds in inhibiting general cell growth.

Another assay deals with CAM vasculature. Kind of assay: Chick chorioallantoic membrane (CAM) assay of anti-angiogenic activity. The assay is classed as in vivo. How it is done: Fresh fertile eggs were be incubated for 3 days in a standard egg incubator at 37° C. for 3 days. On Day 3, eggs were cracked under sterile conditions and embryos were placed into 20×100 mm plastic plates and cultivated at 37° C. in an embryo incubator with a water reservoir on the bottom shelf. Air was continuously bubbled into the water reservoir using a small pump so that the humidity in the incubator was kept constant. […] Embryos were returned to the incubator after addition of test material. Control embryos received 10 μL of vehicle alone. […] The blood vessel density was semi-quantitatively measured using an angiogenesis scoring system, in that exponential numbers 1 to 32 were used to indicate number of blood vessels present at the treatment sites on the CAM. Number 32 represented the highest density and 0 represented no angiogenesis. The percent of inhibition at each dosing site was calculated using the score recorded for that site divided by the mean score obtained from the appropriate control samples for each individual experiment. The percent of inhibition for each dose of a given compound was calculated by pooling all results obtained for that dose.

The next assay has as its system capillary tube formation. To be noted: Wakabayashi et al., 1997, cited from earlier work.
For assay [2], the system named is human umbilical vein endothelial cells (HUVEC). To be noted: cited from earlier work.
In assay [3] the test system is protein synthesis in the cultured rat cells. The settings on record: cited from earlier work.
The target in assay [4] is cyclin-dependant kinase Cdc28/Cln2 (Saccharomyces cerevisiae, UniProt P00546). The settings on record: Tsuchiya et al., 2001; cited from earlier work.
Assay [5] relates to VEGF-induced angiogenesis (WiDr cells). To be noted: 1.8 mg/kg by intraperitoneal injection; Funahashi et al., 1999; cited from earlier work.
The test system of the next assay is B16-BL6 melanoma cells. The settings on record: same dosage (1.8 mg/kg); cited from earlier work.
For assay [6], the system named is Lewis lung adenocarcinoma. The settings on record: WO 01/09113; cited from earlier work.

In brackets after ≈: the same amount, converted by molar mass.

Sequence of cyclin-dependant kinase Cdc28/Cln2 (P00546 whole entry): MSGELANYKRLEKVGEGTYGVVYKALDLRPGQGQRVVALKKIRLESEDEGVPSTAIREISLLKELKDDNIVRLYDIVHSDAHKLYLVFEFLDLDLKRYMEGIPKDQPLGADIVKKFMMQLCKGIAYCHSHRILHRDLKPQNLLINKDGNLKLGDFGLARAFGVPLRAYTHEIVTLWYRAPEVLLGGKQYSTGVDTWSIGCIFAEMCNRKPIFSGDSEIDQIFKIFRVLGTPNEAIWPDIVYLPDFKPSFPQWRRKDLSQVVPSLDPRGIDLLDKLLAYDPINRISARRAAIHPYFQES
Sequence of cyclin-dependant kinase Cdc28/Cln2 (P20438 whole entry partner): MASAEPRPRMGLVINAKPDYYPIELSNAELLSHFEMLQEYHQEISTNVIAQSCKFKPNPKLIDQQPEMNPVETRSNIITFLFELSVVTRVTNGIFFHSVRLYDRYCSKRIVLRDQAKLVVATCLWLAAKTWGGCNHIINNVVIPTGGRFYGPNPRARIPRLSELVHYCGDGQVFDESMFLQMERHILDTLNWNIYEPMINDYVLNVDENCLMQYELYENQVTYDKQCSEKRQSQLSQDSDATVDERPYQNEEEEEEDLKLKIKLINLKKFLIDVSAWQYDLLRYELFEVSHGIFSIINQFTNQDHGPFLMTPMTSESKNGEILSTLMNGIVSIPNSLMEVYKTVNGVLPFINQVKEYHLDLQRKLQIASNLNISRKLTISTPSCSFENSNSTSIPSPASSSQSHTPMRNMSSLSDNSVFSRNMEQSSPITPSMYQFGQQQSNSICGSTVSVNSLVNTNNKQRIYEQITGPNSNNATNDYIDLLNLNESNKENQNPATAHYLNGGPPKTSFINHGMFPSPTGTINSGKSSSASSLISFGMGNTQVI

As to `C[C@@H]1C[C@H](C)C[C@H](C)[C@@H](O)CC(=O)O[C@H]([C@@H]2CCC[C@H]2C(=O)O)C/C=C/C=C(/C#N)[C@H](O)[C@@H](C)C1` [Compound 1, Borrelidin], in assay [1] (1 μM, mean growth across 12 cell-line panel, treated/control x 100, 4 days exposure), the “Mean % T/C at 1 μM” value was found to be 7 % T/C. For the same compound, in [1] (10 μM, mean growth across 12 cell-line panel, treated/control x 100, 4 days exposure), the “Mean % T/C at 10 μM” value was 6 % T/C. Further, the inhibition at 1 µM in assay [1] (Homo sapiens, 1 uM, 100 minus mean %T/C at 1 uM of Table III, read-out: Mean percentage Inhibition of cancer cell lines at 1 uM) stood at 93%. The “Mean percentage inhibition of CAM vasculature at 25 ng/CAM” value with CAM vasculature (25 ng/CAM) turned out to be 62%. Further, the “Ratio of inhibition of CAM vasculature at 25 ng/CAM to in vitro cancer cell inhibition at 1 uM” value in the assay with CAM vasculature (25 ng/CAM versus 1 uM in cancer cell panel) is listed as 0.6. In the assay with CAM vasculature (angiogenesis score up to 32 (highest density), 0 = no angiogenesis, mean of ten experiments), the “Mean blood vessel density score” value is on record as 6.4. The “IC50 inhibition of capillary tube formation” value with capillary tube formation was 0.0004 µg/mL. In addition, the IC50 with capillary tube formation (read-out: IC50 inhibition of capillary tube formation) is 0.8 nM. Also, the “IC50 anti-proliferative activity towards HUVEC” value in assay [2] (cell growth assay, Wakabayashi et al., 1997) was 0.006 µg/mL (≈ 0.0123 µM). Also, in assay [2] (measured in the same medium), the “HUVEC anti-proliferative IC50 weaker than anti-angiogenesis activity” value is 15 fold. In [3] (0.4 ng/mL versus 20 ng/mL), the “anti-angiogenesis IC50 lower than IC50 for inhibition of protein synthesis” value was 50 fold. Moreover, the “IC50 inhibition of protein synthesis” value in assay [3] (cultured rat cells) was 0.02 µg/mL. Moreover, the “IC50 Cdc28/Cln2” value in assay [4] was 12 µg/mL (≈ 24.5 µM). In addition, in [5], the “increment of vascular volume induced by WiDr cells” value is on record as “significantly reduce”. Moreover, in the assay with B16-BL6 melanoma cells, the “inhibition of the formation of spontaneous lung metastases” value was “effective”. For the same compound, in assay [6], the “propagation of metastatic nodules after removal of the primary tumour” value was “weakly inhibited”.

(Values after patent US20090312316A1, “NOVEL COMPOUNDS” (priority 2006, published 2009).)
